These are literature values, as cited in patent US20070059354A1 (priority 2005, published 2007).

Take `NC(=O)N1c2ccccc2CC(=O)c2ccccc21` [Oxcarbazepine]: the solubility in water entry is “practically insoluble in water”.
